Experimental data taken from US20080182851A1, “ACETYLENE DERIVATIVES AS STEAROYL COA DESATURASE INHIBITORS” (Glenmark Pharmaceuticals S.A., priority 2006, published 2008).

Biological target: T1, human SCD1 enzyme (Homo sapiens, UniProt O00767)
T1 sequence (O00767 1-359): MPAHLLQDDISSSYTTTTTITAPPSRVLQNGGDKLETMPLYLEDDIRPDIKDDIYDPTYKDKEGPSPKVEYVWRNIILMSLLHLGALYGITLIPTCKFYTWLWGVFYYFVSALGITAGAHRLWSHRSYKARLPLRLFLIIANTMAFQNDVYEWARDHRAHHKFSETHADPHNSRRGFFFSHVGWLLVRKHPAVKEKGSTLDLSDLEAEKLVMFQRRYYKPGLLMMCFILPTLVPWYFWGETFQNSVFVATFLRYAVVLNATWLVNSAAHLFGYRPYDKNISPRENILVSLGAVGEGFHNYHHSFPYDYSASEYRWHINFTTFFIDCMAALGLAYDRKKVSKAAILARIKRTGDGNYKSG
Assay: Tritiated water release assay (conversion of radiolabeled stearoyl-CoA to oleoyl-CoA)
Assay type: biochemical
Conditions: 10 μM concentration of test compounds; microsomal SCD1, 3H stearoyl CoA, 37° C. 30 minutes; percent of control reaction; read-out: % Inhibition
Description: The in-vitro activity of the compounds of the present invention against stearoyl coenzyme desaturase was determined by following conversion of radiolabeled-stearoyl-CoA to oleoyl-CoA using human SCD1 enzyme using a previously published assay procedure with some modifications (Barbara R Talamo and Konrad Bloch, Analytical Biochemistry, 1969, 29, 300-304). This assay protocol is only illustrative and is not meant to limit to the scope of the present invention.
In this assay the microsomal SCD1 enzyme desaturates its substrate, Stearoyl CoA (purchased from American Radiochemicals Ltd.) which is tritiated at C9 and C10 positions. Test compounds were dissolved in dimethylsulfoxide and tested at 10 μM final concentration. Before substrate addition, the test compound or standard reference compound (conjugated linoleic acid at 100 μM final concentration) were pre-incubated in reaction buffer with the enzyme for 10 minutes at 30° C. with shaking. Reaction buffer was prepared as described in literature (Obukowicz et al. JPET, 1998, 287, 157-166) except that the MgCl2, ATP (purchased from Sigma) and CoA (purchased from Sigma) concentrations were changed to 4.9 mM, 7.2 mM and 0.54 mM respectively. The desaturation reaction was initiated by addition of 0.5 μCi of ^3H stearoyl CoA and incubated at 37° C. for 30 minutes with shaking. A control reaction was set without any test compound/reference inhibitor to capture maximum enzymatic activity in the assay. Inhibition of enzyme activity was calculated as a percent of this control reaction giving maximum catalysis and the results are given in Table 5.
Table 5: Tritiated water release assay at 10 μM substrate concentration *Conjugated Linoleic acid was used as a reference standard

SMILES | inhibition at 10 µM [%]
COc1ccc(C#Cc2ccc(N3CCN(C(=O)c4ccccc4C(F)(F)F)CC3)nc2)cc1 [Example 30, 4-{5-[2-(4-Methoxyphenyl)-1-ethynyl]-2-pyridyl}piperazino-2-trifluoromethylphenyl methanone] | 26
CC(=O)Oc1cccc(C#Cc2ccc(N3CCN(CC4CCCCC4)CC3)nn2)c1 [Example 56] | 92
CC(C)(C)C#Cc1ccc(N2CCN(C(=O)c3ccccc3C(F)(F)F)CC2)nc1 [Example 18, 4-[5-(3,3-Dimethyl-1-butynyl)-2-pyridyl]piperazino-2-trifluoromethylphenylmethanone] | 26
O=C(O)COc1cccc(C#Cc2ccc(N3CCN(C(=O)c4ccccc4C(F)(F)F)CC3)nc2)c1 [Example 27, 2-[3-(2-{6-[4-(2-Trifluoromethylbenzoyl)piperazino]-3-pyridyl}-1-ethynyl)phenoxy]-acetic acid] | 30
CCCCn1ccnc1C#Cc1ccc(N2CCN(C(=O)c3ccccc3C(F)(F)F)CC2)nc1 [Example 47, 4-{5-[2-(1-Butyl-1H-2-imidazolyl)-1-ethynyl]-2-pyridyl}piperazino-2-trifluoromethyl-phenylmethanone] | 33
O=C(c1cc(Cl)ccc1Cl)N1CCN(c2ccc(C#CCO)cn2)CC1 [Example 2, 4-[5-(3-Hydroxy-1-propynyl)-2-pyridyl]piperazino-2,5-dichlorophenylmethanone] | 57
O=C(c1ccccc1C(F)(F)F)N1CCN(c2ccc(C#Cc3cnccn3)cn2)CC1 [Example 45] | 43
CCCC#Cc1ccc(N2CCN(C(=O)c3ccccc3C(F)(F)F)CC2)nc1 [Example 17, 4-[5-(1-Pentynyl)-2-pyridyl]piperazino-2-trifluoromethylphenylmethanone] | 40
CC(=O)Oc1ccc(C#Cc2ccc(N3CCN(C(=O)c4ccccc4C(F)(F)F)CC3)nc2)cc1 [Example 22] | 84
O=C(c1ccccc1C(F)(F)F)N1CCN(c2ccc(C#Cc3cccc(CO)c3)cn2)CC1 [Example 33, 4-{5-[2-(3-Hydroxymethylphenyl)-1-ethynyl]-2-pyridyl}piperazino-2-trifluoromethyl-phenylmethanone] | 20
O=C(O)c1cc(C#Cc2ccc(N3CCN(C(=O)c4ccccc4C(F)(F)F)CC3)nc2)ccc1O [Example 35, 2-Hydroxy-5-(2-{6-[4-(2-trifluoromethylbenzoyl)piperazino]-3-pyridyl}-1-ethynyl)-benzoic acid] | 36
Oc1ccc(C#Cc2ccc(N3CCC(O)(Cc4ccccc4F)CC3)nn2)cc1 [Example 63, 4-(2-Fluorobenzyl)-1-{6-[(4-hydroxyphenyl)ethynyl]pyridazin-3-yl}piperidin-4-ol] | 94
CC(=O)Oc1ccc(C#Cc2ccc(N3CCC(O)(Cc4ccccc4)CC3)nn2)cc1 [Example 61, 4-{[6-(4-Benzyl-4-hydroxypiperidin-1-yl)pyridazin-3-yl]ethynyl}phenyl acetate] | 97
O=C(c1ccccc1C(F)(F)F)N1CCN(c2ncc(C#Cc3ccc(N4CCCS4(=O)=O)cc3)cn2)CC1 [Example 51] | 22
O=C(c1ccccc1C(F)(F)F)N1CCN(c2ncc(C#Cc3ccc(O)cc3)cn2)CC1 [Example 42, 4-{5-[2-(4-Hydroxyphenyl)-1-ethynyl]-2-pyrimidinyl}piperazino-2-trifluoromethyl-phenylmethanone] | 92
Oc1cccc(C#Cc2ccc(N3CCN(Cc4ccccc4F)CC3)nn2)c1 [Example 60, 3-({6-[4-(2-Fluorobenzyl)piperazin-1-yl]pyridazin-3-yl}ethynyl)phenol] | 95
Oc1cccc(C#Cc2ccc(N3CCN(CC4CCCCC4)CC3)nn2)c1 [Example 57, 3-({6-[4-(Cyclohexylmethyl)piperazin-1-yl]pyridazin-3-yl}ethynyl)phenol] | 96
O=C(c1ccccc1C(F)(F)F)N1CCN(c2ccc(C#CCO)nn2)CC1 [Example 3, 4-[6-(3-Hydroxy-1-propynyl)-3-pyridazinyl]piperazino-2-trifluoromethylphenyl-methanone] | 51
CC(C)(C)c1ccc(OCC#Cc2ccc(N3CCN(C(=O)c4ccccc4C(F)(F)F)CC3)nc2)cc1 [Example 10] | 37
O=C(c1ccccc1C(F)(F)F)N1CCN(c2ccc(C#Cc3ccc(O)cc3)nn2)CC1 [Example 37] | 89
Fc1ccccc1OC1CCN(c2ccc(C#Cc3cccnc3)cn2)CC1 [Example 73, 4-(2-Fluorophenoxy)-1-{5-[2-(3-pyridyl)-1-ethynyl]-2-pyridyl}piperidine] | 37
O=C(c1cc(Cl)ccc1Cl)N1CCN(c2ccc(C#Cc3ccccc3)cn2)CC1 [Example 21, 2,5-Dichlorophenyl-4-[5-(2-phenyl-1-ethynyl)-2-pyridyl]piperazinomethanone] | 40
N#Cc1ccc(OCC#Cc2ccc(N3CCN(C(=O)c4ccccc4C(F)(F)F)CC3)nc2)nc1 [Example 12] | 11
Oc1ccc(C#Cc2ccc(N3CCC(O)(Cc4ccccc4)CC3)nn2)cc1 [Example 62, 4-Benzyl-1-{6-[(4-hydroxyphenyl)ethynyl]pyridazin-3-yl}piperidin-4-ol] | 99
O=C(c1ccccc1C(F)(F)F)N1CCN(c2ncc(C#Cc3ccc(-n4cccc4)cc3)cn2)CC1 [Example 52] | 39
CC(=O)Oc1ccc(C#Cc2ccc(N3CC(Oc4ccccc4F)C3)nn2)cc1 [Example 66] | 94
CCC(O)C#Cc1ccc(N2CCN(C(=O)c3ccccc3C(F)(F)F)CC2)nc1 (stereo not drawn) [Example 6, 4-[5-(3-Hydroxy-1-pentynyl)-2-pyridyl]piperazino-2-trifluoromethylphenylmethanone] | 24
O=C(c1ccccc1C(F)(F)F)N1CCN(c2ncc(C#Cc3cccc(O)c3)cn2)CC1 [Example 43] | 98
O=C(c1ccccc1C(F)(F)F)N1CCN(c2ccc(C#CCOC3CCCC3)cn2)CC1 [Example 9, 4-[5-(3-Cyclopentyloxy-1-propynyl)-2-pyridyl]piperazino-2-trifluoromethylphenyl-methanone] | 86

The remaining lines, values ahead:

inhibition at 10 µM [%] | SMILES
95 | Oc1ccc(C#Cc2ccc(N3CCC(Oc4ccc(Br)cc4F)CC3)nn2)cc1 [Example 81]
100 | Oc1cccc(C#Cc2ccc(N3CCC(Oc4ccccc4C(F)(F)F)CC3)nn2)c1 [Example 91, 3-(2-{6-[4-(2-Trifluoromethylphenoxy)piperidino]-3-pyridazinyl}-1-ethynyl)phenol]
82 | CC(=O)Oc1ccc(C#Cc2ccc(N3CCC(Nc4ccccc4F)CC3)nn2)cc1 [Example 101]
97 | CC(=O)Oc1cccc(C#Cc2ccc(N3CCC(Oc4ccccc4F)CC3)nn2)c1 [Example 85]
95 | Oc1cccc(C#Cc2cnc(N3CCC(Oc4ccccc4F)CC3)nc2)c1 [Example 98]
86 | O=C(Oc1ccc(C#Cc2ccc(N3CCC(Oc4ccccc4F)CC3)nn2)cc1)c1ccco1 [Example 80, 4-{6-[4-(2-Fluorophenoxy)piperidin-1-yl]pyridazin-3-yl}ethynylphenyl-2-furoate]
100 | Oc1cccc(C#Cc2ccc(N3CCC(Oc4ccccc4F)CC3)nn2)c1 [Example 86, 3-(2-{6-[4-(2-Fluorophenoxy)piperidino]-3-pyridazinyl}-1-ethynyl)phenol]
43 | Fc1ccccc1OC1CCN(c2ccc(C#Cc3ccc(OCCN4CCCCC4)cc3)nn2)CC1 [Example 78]
93 | COc1cc(C#Cc2ccc(N3CCC(Oc4ccccc4F)CC3)nn2)ccc1O [Example 83, 2-Methoxy-4-{6-[4-(2-fluorophenoxy)piperidin-1-yl]pyridazin-3-yl}ethynylphenol]
37 | Fc1ccccc1OC1CCN(c2ccc(C#Cc3ccc(C(F)(F)F)cc3)nn2)CC1 [Example 84, 3-[4-(2-Fluorophenoxy)piperidino]-6-[2-(4-trifluoromethylphenyl)-1-ethynyl]pyridazine]
96 | Oc1ccc(C#Cc2ccc(N3CCC(Oc4cc(Cl)ccc4Cl)CC3)nn2)cc1 [Example 93, 4-[{6-[4-(2,5-Dichlorophenoxy)piperidin-1-yl]pyridazin-3-yl}ethynyl]phenol]
36 | Cc1cccc(C#Cc2cnc(N3CCC(Oc4ccccc4F)CC3)nc2)c1 [Example 97]
30 | NC(=O)c1cccc(C#Cc2ccc(N3CCC(Oc4cccnc4)CC3)nn2)c1 [Example 96]
